Data from PubChem BioAssay (NCI).
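In this assay, cells in 96-well plates receive the compound at five concentrations for 48 hours. Endpoints are linearly interpolated between the surrounding concentrations. TGI: total growth inhibition.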

Experiments:
Test in all cases: NCI tumour cell line growth inhibition, 48 h
SR leukemia = test system: SR leukemia
LOX IMVI melanoma = test system: LOX IMVI melanoma
T-47D breast = test system: T-47D breast
RPMI-8226 leukemia = test system: RPMI-8226 leukemia
NCI/ADR-RES ovarian = test system: NCI/ADR-RES ovarian
MCF7 breast = test system: MCF7 breast
SN12C renal = test system: SN12C renal
U251 CNS = test system: U251 CNS
UO-31 renal = test system: UO-31 renal
A498 renal = test system: A498 renal
KM12 colon = test system: KM12 colon
M14 melanoma = test system: M14 melanoma
NCI-H23 lung = test system: NCI-H23 lung
HS 578T breast = test system: HS 578T breast
OVCAR-8 ovarian = test system: OVCAR-8 ovarian
OVCAR-5 ovarian = test system: OVCAR-5 ovarian
UACC-257 melanoma = test system: UACC-257 melanoma
MDA-N = test system: MDA-N
A549 NSCLC = test system: A549 NSCLC
HOP-92 NSCLC = test system: HOP-92 NSCLC
HCC-2998 colon = test system: HCC-2998 colon
786-0 renal = test system: 786-0 renal
OVCAR-3 ovarian = test system: OVCAR-3 ovarian
NCI-H460 lung = test system: NCI-H460 lung
HT29 colon = test system: HT29 colon
COLO 205 colon = test system: COLO 205 colon
EKVX NSCLC = test system: EKVX NSCLC
HOP-62 NSCLC = test system: HOP-62 NSCLC
PC-3 prostate = test system: PC-3 prostate
SK-MEL-5 melanoma = test system: SK-MEL-5 melanoma
CAKI-1 renal = test system: CAKI-1 renal
HL-60(TB) leukemia = test system: HL-60(TB) leukemia
HCT-15 colon = test system: HCT-15 colon
NCI-H226 lung = test system: NCI-H226 lung
TK-10 renal = test system: TK-10 renal
SF-268 CNS = test system: SF-268 CNS
CCRF-CEM leukemia = test system: CCRF-CEM leukemia
SNB-75 CNS = test system: SNB-75 CNS
OVCAR-4 ovarian = test system: OVCAR-4 ovarian
SK-MEL-28 melanoma = test system: SK-MEL-28 melanoma
K-562 leukemia = test system: K-562 leukemia
SF-539 CNS = test system: SF-539 CNS
MOLT-4 leukemia = test system: MOLT-4 leukemia
HCT-116 colon = test system: HCT-116 colon
SW-620 colon = test system: SW-620 colon
SK-MEL-2 melanoma = test system: SK-MEL-2 melanoma
ACHN renal = test system: ACHN renal
SK-OV-3 ovarian = test system: SK-OV-3 ovarian
MDA-MB-231 breast = test system: MDA-MB-231 breast
BT-549 breast = test system: BT-549 breast
RXF 393 renal = test system: RXF 393 renal
SF-295 CNS = test system: SF-295 CNS
DU-145 prostate = test system: DU-145 prostate
MDA-MB-435 = test system: MDA-MB-435
UACC-62 melanoma = test system: UACC-62 melanoma
SNB-19 CNS = test system: SNB-19 CNS
IGROV1 ovarian = test system: IGROV1 ovarian
MALME-3M melanoma = test system: MALME-3M melanoma

Measured: TGI

Cn1c(-c2ccccc2)cc(-c2ccc3c(c2)OCO3)c1-c1ccsc1
not listed: IGROV1 ovarian | MALME-3M melanoma
> 100 µM: all other assays above

CC(NNC(=O)c1ccncc1)c1ccccc1 (stereo not drawn)
not listed: NCI-H460 lung
> 100 µM: all other assays above
